Values of other authors, collected in patent US20040110828A1, “Tetrahydrocannabinol compositions and methods of manufacture and use thereof” (priority 2002, published 2004).

CCCCCc1cc(O)c2c(c1)OC(C)(C)[C@@H]1CCC(C)=C[C@@H]21 [Delta 9-THC, Delta 9-tetrahydrocannabinol]
half-life of blood level (IV administration, slow phase after the initial distribution (first 30 minutes)): ≥ 19 h
compound and its metabolites remaining in the body (one week after an IV injection of a single dose): 25-30%
